Data reported in ChEMBL document CHEMBL1143875, “Synthesis and structure-activity relationships of thiadiazole-derivatives as potent and orally active peroxisome proliferator-activated receptors alpha/delta dual agonists” (Bioorg Med Chem, 2008).
Activity calls are given as the source filed them. The calls are words filed in the database; no cut-off is given here.

How the values were obtained:
Canis familiaris [1] = assay: Increase in aspartate aminotransferase level in Beagle dog serum at 10 mg/kg, po/day after 7 days; format: functional, Canis lupus familiaris
Mus musculus [2] = assay: […] effect of ob/ob C57BL/6J-leptin deficient obese mouse assessed as reduction in body weight at 0.1 to 3 mg/kg, po after 11 days; format: functional, organism-based
[3] = Cmax in Sprague-Dawley rat at 3 mg/kg administered as multiple dose after 8 days; format: ADME, organism-based; parameters: dose 3 mg/kg; details: in vivo
[4] = Activity at liver X receptor
Canis familiaris [5] = assay: Antihyperlipidemic activity in Beagle dog serum assessed as reduction in free fatty acids level at 0.3 to 10 mg/kg, po/day after 7 days; format: functional, organism-based; details: Canis lupus familiaris
Rattus norvegicus [6] = assay: Decrease in total cholesterol level in hypercholesterolemic Sprague-Dawley rat serum at 0.1 to 1 mg/kg, po after 8 days; format: functional; details: dose mg/kg 0.1-1
[7] = Half life in Sprague-Dawley rat at 3 mg/kg administered as multiple dose after 8 days; format: ADME, organism-based; parameters: dose 3 mg/kg; details: in vivo
Mus musculus [8] = assay: […] effect of ob/ob C57BL/6J-leptin deficient obese mouse assessed as reduction in serum insulin level at 0.1 to 3 mg/kg, po after 11 days; format: functional; parameters: scale not given: the % may be the effect or the level left; details: dose mg/kg 0.1-3
[9] = Cmax in Sprague-Dawley rat at 1 mg/kg administered as multiple dose after 8 days; format: ADME, organism-based; parameters: dose 1 mg/kg; details: in vivo
[10] = Cmax in ob/ob C57BL/6J-leptin deficient obese mouse at 0.3 mg/kg administered as multiple dose after 11 days; format: ADME, organism-based; parameters: dose 0.3 mg/kg; details: in vivo
[11] = Half life in ob/ob C57BL/6J-leptin deficient obese mouse at 3 mg/kg administered as multiple dose after 11 days; format: ADME, organism-based; parameters: dose 3 mg/kg; details: in vivo
[12] = Induction of CPT1 gene expression in human skeletal muscle cells at 1 nM by RT-PCR; format: functional
[13] = Half life in Beagle dog at 3 mg/kg administered as multiple dose after 7 days; format: ADME, organism-based, Canis lupus familiaris; parameters: dose 3 mg/kg; details: in vivo
[14] = Induction of Pa9 gene expression in human skeletal muscle cells at 1000 nM by RT-PCR; format: functional
Canis familiaris [15] = assay: Antihyperlipidemic activity in Beagle dog serum assessed as reduction in total cholesterol level at 0.3 to 10 mg/kg, po/day after 7 days; format: functional, organism-based; details: Canis lupus familiaris
[16] = AUC in Beagle dog at 10 mg/kg administered as multiple dose after 7 days; format: ADME, organism-based, Canis lupus familiaris; parameters: dose 10 mg/kg; details: plasma
[17] = Half life in Sprague-Dawley rat at 0.3 mg/kg administered as multiple dose after 8 days; format: ADME, organism-based; parameters: dose 0.3 mg/kg; details: in vivo
[18] = Cmax in Sprague-Dawley rat at 0.1 mg/kg administered as multiple dose after 8 days; format: ADME, organism-based; parameters: dose 0.1 mg/kg; details: in vivo
[19] = Cmax in Sprague-Dawley rat at 0.3 mg/kg administered as multiple dose after 8 days; format: ADME, organism-based; parameters: dose 0.3 mg/kg; details: in vivo
[20] = molecular target: T1, Glucocorticoid receptor (Homo sapiens) (UniProt P04150); assay: Activity at glucocorticoid receptor
T1 sequence (whole entry): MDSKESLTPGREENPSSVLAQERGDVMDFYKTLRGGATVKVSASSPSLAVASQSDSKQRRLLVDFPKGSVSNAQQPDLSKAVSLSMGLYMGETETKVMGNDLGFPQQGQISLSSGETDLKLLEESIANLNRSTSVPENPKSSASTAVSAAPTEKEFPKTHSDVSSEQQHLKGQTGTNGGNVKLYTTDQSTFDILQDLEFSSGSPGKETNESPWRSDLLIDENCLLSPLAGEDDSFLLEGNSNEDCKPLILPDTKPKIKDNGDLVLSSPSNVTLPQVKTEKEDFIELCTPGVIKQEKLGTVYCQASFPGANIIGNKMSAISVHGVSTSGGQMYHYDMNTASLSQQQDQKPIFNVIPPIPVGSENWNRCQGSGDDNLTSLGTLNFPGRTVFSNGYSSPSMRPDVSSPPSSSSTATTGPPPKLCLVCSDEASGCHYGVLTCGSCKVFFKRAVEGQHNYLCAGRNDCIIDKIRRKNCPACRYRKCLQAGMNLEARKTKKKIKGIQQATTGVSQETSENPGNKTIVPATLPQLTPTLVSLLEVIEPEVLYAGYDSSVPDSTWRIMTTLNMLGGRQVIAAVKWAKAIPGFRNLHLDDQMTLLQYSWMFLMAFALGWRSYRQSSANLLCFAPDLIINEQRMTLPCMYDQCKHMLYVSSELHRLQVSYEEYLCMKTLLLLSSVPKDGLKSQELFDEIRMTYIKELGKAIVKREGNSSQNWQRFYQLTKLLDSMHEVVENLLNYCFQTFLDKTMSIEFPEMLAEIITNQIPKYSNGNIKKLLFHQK

Mus musculus [21] = assay: Decrease in non esterified free fatty acid level i in po dosed hApoA1 transgenic mouse after 7 days; format: functional, organism-based
[22] = Cmax in Beagle dog at 3 mg/kg administered as multiple dose after 7 days; format: ADME, organism-based, Canis lupus familiaris; parameters: dose 3 mg/kg; details: in vivo
[23] = Half life in Beagle dog at 10 mg/kg administered as multiple dose after 7 days; format: ADME, organism-based, Canis lupus familiaris; parameters: dose 10 mg/kg; details: in vivo
[24] = AUC in Sprague-Dawley rat at 0.1 mg/kg administered as multiple dose after 8 days; format: ADME, organism-based; parameters: dose 0.1 mg/kg; details: plasma
[25] = Half life in ob/ob C57BL/6J-leptin deficient obese mouse at 0.3 mg/kg administered as multiple dose after 11 days; format: ADME, organism-based; parameters: dose 0.3 mg/kg; details: in vivo
Mus musculus [26] = assay: […] effect of ob/ob C57BL/6J-leptin deficient obese mouse assessed as reduction in triglyceride level at 0.1 to 3 mg/kg, po after 11 days; format: functional; parameters: scale not given: the % may be the effect or the level left; details: dose mg/kg 0.1-3
[27] = Half life in Beagle dog at 1 mg/kg administered as multiple dose after 7 days; format: ADME, organism-based, Canis lupus familiaris; parameters: dose 1 mg/kg; details: in vivo
[28] = Half life in ob/ob C57BL/6J-leptin deficient obese mouse at 1 mg/kg administered as multiple dose after 11 days; format: ADME, organism-based; parameters: dose 1 mg/kg; details: in vivo
[29] = Half life in ob/ob C57BL/6J-leptin deficient obese mouse at 0.1 mg/kg administered as multiple dose after 11 days; format: ADME, organism-based; parameters: dose 0.1 mg/kg; details: in vivo
[30] = Induction of CPT1 gene expression in human skeletal muscle cells at 1000 nM by RT-PCR; format: functional
Mus musculus [31] = assay: Increase in hApoA1 level in po dosed hApoA1 transgenic mouse after 7 days; format: functional, organism-based
Rattus norvegicus [32] = assay: Decrease in triglyceride level in po dosed hypercholesterolemic Sprague-Dawley rat serum after 8 days; format: functional, organism-based
[33] = AUC in ob/ob C57BL/6J-leptin deficient obese mouse at 0.1 mg/kg administered as multiple dose after 11 days; format: ADME, organism-based; parameters: dose 0.1 mg/kg; details: plasma
Mus musculus [34] = assay: […] effect of ob/ob C57BL/6J-leptin deficient obese mouse assessed as reduction in serum glucose level at 0.1 to 3 mg/kg, po after 11 days; format: functional; parameters: scale not given: the % may be the effect or the level left; details: dose mg/kg 0.1-3
[35] = AUC in Beagle dog at 3 mg/kg administered as multiple dose after 7 days; format: ADME, organism-based, Canis lupus familiaris; parameters: dose 3 mg/kg; details: plasma
[36] = Half life in Sprague-Dawley rat at 1 mg/kg administered as multiple dose after 8 days; format: ADME, organism-based; parameters: dose 1 mg/kg; details: in vivo
[37] = Inhibition of cytochrome P450 in human liver microsome; format: ADME, microsomes
Canis familiaris [38] = assay: Effect on aspartate aminotransferase level in Beagle dog serum at 0.3 to 3 mg/kg, po/day after 7 days; format: functional, organism-based; details: Canis lupus familiaris
[39] = Half life in Sprague-Dawley rat at 3 mg/kg administered as single dose on day 8; format: ADME, organism-based; parameters: dose 3 mg/kg; details: in vivo

Compound: Cc1cc(SCc2nc(-c3ccc(Cl)c(Cl)c3)ns2)ccc1OC(C)(C)C(=O)O
- Fold change (Canis familiaris [1]): 1.7
- Activity (Mus musculus [2]): Active
- Cmax [3]: 2000 ng/mL
- Activity [4]: inactive
- Activity (Canis familiaris [5]): Dose-dependent effect
- Activity (Rattus norvegicus [6]): 263 mg/dL
- half-life [7]: 7.1 h
- Activity (Mus musculus [8]): 50%
- Cmax [9]: 1360 ng/mL
- Cmax [10]: 1840 ng/mL
- half-life [11]: 6.7 h
- Fold change [12]: 3
- half-life [13]: 6 h
- Fold change [14]: 15
- Activity (Canis familiaris [15]): Dose-dependent effect
- AUC at 168 h [16]: 61600 ng·h/mL
- half-life [17]: 5.1 h
- Cmax [18]: 82 ng/mL
- Cmax [19]: 231 ng/mL
- Activity [20]: inactive
- Activity (Mus musculus [21]): Active
- Cmax [22]: 6710 ng/mL
- half-life [23]: 6.2 h
- AUC at 192 h [24]: 738 ng·h/mL
- half-life [25]: 5 h
- Activity (Mus musculus [26]): 83%
- half-life [27]: 4.7 h
- half-life [28]: 5.2 h
- half-life [29]: 5.1 h
- Fold change [30]: 7.8
- Activity (Mus musculus [31]): Dose-dependent effect
- Activity (Rattus norvegicus [32]): Dose-dependent effect
- AUC at 264 h [33]: 2780 ng·h/mL
- Activity (Mus musculus [34]): 52%
- AUC at 168 h [35]: 24100 ng·h/mL
- half-life [36]: 5.7 h
- IC50 [37]: > 30 µM
- Activity (Canis familiaris [38]): inactive
- half-life [39]: 7.2 h
